Legend:
[1] = Crystal; DTA
[2] = Molar enthalpy of transition or fusion; conditions: Crystal; DSC
[3] = molar heat capacity at constant pressure; conditions: 100 kPa, Crystal, DSC

c1cc2ccc3cccc4ccc(c1)c2c34 [pyrene]
Conditions | Molar enthalpy of transition or fusion [kcal/mol] | Normal melting temperature [°C]
[1] | – | 150.8
[2] | 4.15 | –

[3]
Conditions | molar heat capacity at constant pressure [J/K/mol]
293.15 K | 221.9
298.15 K | 225.8
303.15 K | 230.2
308.15 K | 234.3
313.15 K | 238.7
318.15 K | 243
323.15 K | 247.5
328.15 K | 252.6
333.15 K | 258.1
338.15 K | 263.6
343.15 K | 268.9
348.15 K | 274.1
353.15 K | 279.8
358.15 K | 285.4
363.15 K | 291.4
368.15 K | 298.2
373.15 K | 304.6
378.15 K | 310.7
383.15 K | 317.5
388.15 K | 325.7
393.15 K | 333.7
398.15 K | 341.5
403.15 K | 349.9
408.15 K | 359.2
413.15 K | 372.2

c1ccc2cc3ccccc3cc2c1 [anthracene]
Conditions | Molar enthalpy of transition or fusion [kcal/mol] | Normal melting temperature [°C]
[1] | – | 216.6
[2] | 7.33 | –

[3]
Conditions | molar heat capacity at constant pressure [J/K/mol]
293.15 K | 205.7
298.15 K | 209.9
303.15 K | 213.9
308.15 K | 217.6
313.15 K | 221.7
318.15 K | 225.4
323.15 K | 229.6
328.15 K | 234.2
333.15 K | 237.9
338.15 K | 242.2
343.15 K | 246.5
348.15 K | 250.7
353.15 K | 254.9
358.15 K | 258.8
363.15 K | 262.9
368.15 K | 266.9
373.15 K | 270.6
378.15 K | 275.2
383.15 K | 279.2
388.15 K | 283.2
393.15 K | 286.9
398.15 K | 291.7
403.15 K | 295.8
408.15 K | 299.3
413.15 K | 303.3
418.15 K | 306.8
423.15 K | 309.9
428.15 K | 313.4
433.15 K | 317.4

O=c1cc(-c2ccccc2)oc2ccc(O)cc12 [6-hydroxyflavone]
Conditions | Molar enthalpy of transition or fusion [kcal/mol] | Normal melting temperature [°C]
[1] | – | 236.2
[2] | 7.75 | –

[3]
Conditions | molar heat capacity at constant pressure [J/K/mol]
293.15 K | 244.4
298.15 K | 250.3
303.15 K | 255.3
308.15 K | 260.4
313.15 K | 265.7
318.15 K | 271.1
323.15 K | 277
328.15 K | 282.6
333.15 K | 287.5
338.15 K | 292.7
343.15 K | 297.3
348.15 K | 302.4
353.15 K | 307.1
358.15 K | 312.4
363.15 K | 317.2
368.15 K | 321.9
373.15 K | 326.7
378.15 K | 330.6
383.15 K | 335.1
388.15 K | 339.8
393.15 K | 344.4
398.15 K | 348.9
403.15 K | 353.2
408.15 K | 358.3
413.15 K | 362.3
418.15 K | 365.8
423.15 K | 370.3
428.15 K | 373.7
433.15 K | 376.9
438.15 K | 380.8
443.15 K | 383.5
448.15 K | 385.7
453.15 K | 388.4
458.15 K | 391.5
463.15 K | 394.2
468.15 K | 397.1
473.15 K | 399.2
478.15 K | 402
483.15 K | 404.1
488.15 K | 406.1
493.15 K | 408.4
498.15 K | 412

Nc1ccc2oc(-c3ccccc3)cc(=O)c2c1 [6-aminoflavone]
Conditions | Molar enthalpy of transition or fusion [kcal/mol] | Normal melting temperature [°C]
[1] | – | 198.8
[2] | 7.27 | –

[3]
Conditions | molar heat capacity at constant pressure [J/K/mol]
293.15 K | 272.6
298.15 K | 277.9
303.15 K | 283.4
308.15 K | 287.6
313.15 K | 292.2
318.15 K | 296.7
323.15 K | 301.6
328.15 K | 306.3
333.15 K | 311.1
338.15 K | 316.1
343.15 K | 320.4
348.15 K | 324.5
353.15 K | 328.9
358.15 K | 333.6
363.15 K | 338.1
368.15 K | 342.2
373.15 K | 346.1
378.15 K | 349.8
383.15 K | 353.8
388.15 K | 358.5
393.15 K | 361.8
398.15 K | 367.2
403.15 K | 371
408.15 K | 374.6
413.15 K | 378.3
418.15 K | 381.8
423.15 K | 385.4
428.15 K | 390.1
433.15 K | 395.3
438.15 K | 400.4
443.15 K | 406.4
448.15 K | 411.3
453.15 K | 418.5
458.15 K | 427.8

O=c1cc(-c2ccccc2)oc2cccc(O)c12 [5-hydroxyflavone]
Conditions | Molar enthalpy of transition or fusion [kcal/mol] | Normal melting temperature [°C]
[1] | – | 158
[2] | 6.49 | –

[3]
Conditions | molar heat capacity at constant pressure [J/K/mol]
293.15 K | 274.6
298.15 K | 279.8
303.15 K | 285.1
308.15 K | 289.4
313.15 K | 297
318.15 K | 302.8
323.15 K | 307
328.15 K | 311.2
333.15 K | 312.9
338.15 K | 315.9
343.15 K | 319.5
348.15 K | 323.8
353.15 K | 328.8
358.15 K | 334.4
363.15 K | 338.5
368.15 K | 344.8
373.15 K | 347.9
378.15 K | 350.8
383.15 K | 355.6
388.15 K | 360.1
393.15 K | 365.3
398.15 K | 369.6
403.15 K | 373.8
408.15 K | 377.7
413.15 K | 382.3
418.15 K | 387.6
423.15 K | 395.5

O=c1c(O)c(-c2ccccc2)oc2ccccc12 [3-hydroxyflavone]
Conditions | Molar enthalpy of transition or fusion [kcal/mol] | Normal melting temperature [°C]
[1] | – | 170.5
[2] | 7.76 | –

[3]
Conditions | molar heat capacity at constant pressure [J/K/mol]
293.15 K | 268.9
298.15 K | 270.1
303.15 K | 272.8
308.15 K | 275.3
313.15 K | 278.3
318.15 K | 280.8
323.15 K | 284.2
328.15 K | 287.6
333.15 K | 291.5
338.15 K | 295.2
343.15 K | 298.9
348.15 K | 303.2
353.15 K | 306.8
358.15 K | 310.8
363.15 K | 315
368.15 K | 319.4
373.15 K | 323.7
378.15 K | 328
383.15 K | 332
388.15 K | 336.9
393.15 K | 341.6
398.15 K | 346.8
403.15 K | 351.6
408.15 K | 356.3
413.15 K | 361.2
418.15 K | 366
423.15 K | 372.3
428.15 K | 379
433.15 K | 386

O=c1cc(-c2ccccc2)oc2cc(O)ccc12 [7-hydroxyflavone]
Conditions | Molar enthalpy of transition or fusion [kcal/mol] | Normal melting temperature [°C]
[1] | – | 242.1
[2] | 7.46 | –

[3]
Conditions | molar heat capacity at constant pressure [J/K/mol]
293.15 K | 248.1
298.15 K | 253.1
303.15 K | 259.1
308.15 K | 263.4
313.15 K | 268.2
318.15 K | 272
323.15 K | 276.8
328.15 K | 282.1
333.15 K | 286
338.15 K | 291.4
343.15 K | 295.3
348.15 K | 299.4
353.15 K | 303.6
358.15 K | 307.6
363.15 K | 312.3
368.15 K | 316.2
373.15 K | 320.7
378.15 K | 324.4
383.15 K | 328.2
388.15 K | 332.4
393.15 K | 336
398.15 K | 340.1
403.15 K | 343.3
408.15 K | 347
413.15 K | 351.4
418.15 K | 355.2
423.15 K | 358.2
428.15 K | 361.9
433.15 K | 366.3
438.15 K | 369.6
443.15 K | 372.3
448.15 K | 376.7
453.15 K | 379.5
458.15 K | 382.7
463.15 K | 385.8
468.15 K | 388.5
473.15 K | 390.8
478.15 K | 391.9
483.15 K | 394
488.15 K | 398.1
493.15 K | 400.9
498.15 K | 406.2

O=C(O)c1ccccc1 [benzoic acid]
Conditions | Molar enthalpy of transition or fusion [kcal/mol] | Normal melting temperature [°C]
[1] | – | 122.2
[2] | 4.44 | –

[3]
Conditions | molar heat capacity at constant pressure [J/K/mol]
293.15 K | 143.2
298.15 K | 145.2
303.15 K | 147.5
308.15 K | 149.6
313.15 K | 151.4
318.15 K | 153
323.15 K | 155.4
328.15 K | 157.8
333.15 K | 160
338.15 K | 162.2
343.15 K | 164.4
348.15 K | 166.6
353.15 K | 169.1
358.15 K | 171.7
363.15 K | 174.4
368.15 K | 176.8
373.15 K | 179.2
378.15 K | 182
383.15 K | 185.4
388.15 K | 190.1
